Test results reported in patent US9024018B2, “3-substituted-8-substituted-3H-imidazo[5,1-d][1,2,3,5]tetrazin-4-one compounds and their use” (Pharminox Limited, priority 2009, dated 2015).

Assays:
Type in all cases: cell-based
SNB19M = experiment: MTT assay for 7-day toxicity, SNB19M glioma cells (stably transfected with MGMT, MGMT+); details: Glioma cell, 168 h, 7 day MTT assay, glioma line SNB19M
Experimental: (§1) The cell culture techniques were carried out in a Class II microbiological safety cabinet which was swabbed with 70% IMS in distilled water before each use. Glioma cells were routinely cultured in Costar tissue culture flasks in RPMI 1640 liquid medium (containing 0.3 g/L L-glutamine and 2 g/L sodium bicarbonate) supplemented with 10% heat inactivated FBS (55-59° C.) for 1 hour to denature complement proteins which would otherwise evoke a cellular immune response resulting in cell lysis, 1% non-essential amino acids, 50 μg/mL gentamicin and 400 μg/mL G418 (vector selection reagent). Colorectal and melanoma cells were maintained in RPMI 1640 supplemented with 10% FBS. MRC-5 cells were cultured in EMEM+10% FBS, 1% pen/strep, 1% non-essential amino acids, 1% HEPES (1M) and 1% sodium bicarbonate.
(§2) Cells were grown at 37° C. in a humidified incubator in an atmosphere comprising 95% air/5% CO2. Cells were sub-cultured when growth exceeded approximately 80% confluence, normally twice weekly. The medium was aspirated from the flask and approximately 0.8 mL trypsin-EDTA 1× solution added. The cells were re-incubated at 37° C. until they had visibly detached from the flask. The cells were re-suspended in 5 mL medium and 0.5-1 mL was transferred to a new flask (25 cm^2) with 7 mL culture medium. The cells were further incubated at 37° C. To minimize phenotypic drift, cells were disposed of once they had been subcultured 30 times. New batches of cells were thawed rapidly in 37° C. water bath once taken from liquid nitrogen storage and re-suspended in 10 mL of culture medium in a 25 cm^2 flask. Cells were passaged twice to allow normal growth to resume prior to use in experiments.
(§3) Most test compounds, including temozolomide, were prepared as 100 mM stock solutions in DMSO and stored at −20° C. for not more than 6 months.
(§4) MTT Assay for 7-Day Toxicity Assay
(§5) This assay was first described in Mosmann, T., 1983, “Rapid colorimetric assay for cellular growth and survival: Application to proliferation and cytotoxicity assays”, Journal of Immunological Methods, Vol. 65, Nos. 1-2, pp. 55-63.
(§6) Glioma cell lines, SNB19 and U373, both stably transfected with MGMT (i.e., SNB19M and U373M) or their respective vector controls (i.e., SNB19V and U373V); colorectal carcinoma cell lines, HCT116, HT29, and DLD1; melanoma cell line, SKMEL-28; breast cell line, MCF-7; and normal human fetal lung fibroblast cell line, MRC-5; were used at 60-80% confluence, during the logarithmic phase of growth.
(§7) Following harvesting with trypsin/EDTA, cells in suspension were gently syringed through a 23 gauge needle to obtain a near-single cell suspension. Cells were then seeded into 96-well plates at the desired density in 180 μL culture medium if only one test compound was to be added, or in 160 μL if two test compounds were to be added in combination. Cells were allowed to attach overnight by incubation at 37° C. in 95% air/5% CO2. For the 7 day assay, the cell seeding densities for the different cell lines were as follows: SNB19V, SNB19M: 650 cells/well; U373V, U373M: 650 cells/well; SNB19VR, U373VR: 650 cells/well; HCT116, DLD-1, SKMEL-28, MRC-5, MCF-7: 400 cells/well.
(§8) The two peripheral lanes of each plate were used as blank wells (cell free) and filled with 200 μL of medium in order to minimise medium evaporation from the plate. A separate time zero (T0) plate was set up alongside other plates. Serial dilutions in tissue culture medium of a 100 mM stock of test compound were prepared immediately before each assay to ten times the final concentrations required. 20 μL was added to each well (200 μL total media per well) to achieve final concentrations of 0.5 μM, 1 μM, 5 μM, 10 μM, 50 μM, 100 μM, 500 μM, and 1000 μM. A minimum of four wells received the same test compound concentration. To control wells, including those in the T0 plate, 20 μL of medium was added. […]

U373V = experiment: MTT assay for 7-day toxicity, U373V glioma cells (vector control, MGMT-); details: Glioma cell, 168 h, 7 day MTT assay, glioma line U373V
Experimental: as §1, §2, §3, §4, §5, §6, §7, §8

SNB19V = experiment: MTT assay for 7-day toxicity, SNB19V glioma cells (vector control, MGMT-); details: Glioma cell, 168 h, 7 day MTT assay, glioma line SNB19V
Experimental: as §1, §2, §3, §4, §5, §6, §7, §8

U373M = experiment: MTT assay for 7-day toxicity, U373M glioma cells (stably transfected with MGMT, MGMT+); details: Glioma cell, 168 h, 7 day MTT assay, glioma line U373M
Experimental: as §1, §2, §3, §4, §5, §6, §7, §8

Compound | GI50 (SNB19M) | GI50 (U373V) | GI50 (SNB19V) | GI50 (U373M)
Cn1nnc2c(-c3nc4ccccc4s3)ncn2c1=O [WW-058, 8-(Benzo[d]thiazol-2-yl)-3-methylimidazo[5,1-d][1,2,3,5]tetrazin-4(3H)-one] | < 70 µM | < 75 µM | < 45 µM | < 60 µM
Cn1nnc2c(-c3nc(-c4ccccc4)c[nH]3)ncn2c1=O [WW-049, 3-Methyl-8-(4-phenyl-1H-imidazol-2-yl)imidazo[5,1-d][1,2,3,5]tetrazin-4(3H)-one] | < 70 µM | < 75 µM | < 45 µM | < 60 µM
Cn1nnc2c(-c3nc(-c4ccccc4)co3)ncn2c1=O [WW-037, 3-Methyl-8-(4-phenyloxazol-2-yl)imidazo[5,1-d][1,2,3,5]tetrazin-4(3H)-one] | < 70 µM | < 75 µM | < 45 µM | < 60 µM
C#CCn1nnc2c(-c3nc(-c4ccc(S(C)(=O)=O)cc4)cs3)ncn2c1=O [WW-025] | < 70 µM | < 75 µM | < 45 µM | < 60 µM
Cn1nnc2c(-c3nc(-c4ccccc4)cs3)ncn2c1=O [WW-002] | < 70 µM | < 75 µM | < 45 µM | < 60 µM
C#CCn1nnc2c(-c3nc(-c4ccccc4)cs3)ncn2c1=O [WW-004, 8-(4-phenylthiazol-2-yl)-3-(prop-2-ynyl)imidazo[5,1-d][1,2,3,5]tetrazin-4(3H)-one] | < 70 µM | < 75 µM | < 45 µM | < 60 µM
C#CCn1nnc2c(-c3nc(-c4ccsc4)cs3)ncn2c1=O [WW-024, 3-(Prop-2-ynyl)-8-(4-(thiophen-3-yl)thiazol-2-yl)imidazo[5,1-d][1,2,3,5]tetrazin-4(3H)-one] | < 70 µM | < 75 µM | < 45 µM | < 60 µM
COCn1nnc2c(/C=C/c3ccc(C#N)cc3)ncn2c1=O [MM-001, (E)-4-(2-(3-(Methoxymethyl)-4-oxo-3,4-dihydroimidazo[5,1-d][1,2,3,5]tetrazin-8-yl)vinyl)benzonitrile] | 8.9 µM | 7.7 µM | 9.1 µM | 8.8 µM
Cn1nnc2c(-c3nc4ccccc4[nH]3)ncn2c1=O [WW-062, 8-(1H-Benzo[d]imidazol-2-yl)-3-methylimidazo[5,1-d][1,2,3,5]tetrazin-4(3H)-one] | < 70 µM | < 75 µM | < 45 µM | < 60 µM
Cn1nnc2c(-c3nc(-c4ccsc4)cs3)ncn2c1=O [WW-012, 3-Methyl-8-(4-(thiophen-3-yl)thiazol-2-yl)imidazo[5,1-d][1,2,3,5]tetrazin-4(3H)-one] | < 70 µM | < 75 µM | < 45 µM | < 60 µM
Cn1nnc2c(-c3ncc(-c4ccccc4)o3)ncn2c1=O [WW-038, 3-Methyl-8-(5-phenyloxazol-2-yl)imidazo[5,1-d][1,2,3,5]tetrazin-4(3H)-one] | < 70 µM | < 75 µM | < 45 µM | < 60 µM
Cn1nnc2c(-c3nc(-c4ccc(F)cc4)cs3)ncn2c1=O [WW-001, 8-(4-(4-Fluorophenyl)thiazol-2-yl)-3-methylimidazo[5,1-d][1,2,3,5]tetrazin-4(3H)-one] | < 70 µM | < 75 µM | < 45 µM | < 60 µM
Cn1nnc2c(-c3nc(C(=O)NC4CC4)cs3)ncn2c1=O [WW-008, N-Cyclopropyl-2-(3-methyl-4-oxo-3,4-dihydroimidazo[5,1-d][1,2,3, 5]tetrazin-8-yl)thiazole-4-carboxamide] | < 70 µM | < 75 µM | < 45 µM | < 60 µM
C[S+]([O-])Cn1nnc2c(-c3nc(-c4ccsc4)cs3)ncn2c1=O (centres unmarked) [WW-033, 3-(methylsulfinylmethyl)-8-(4-(thiophen-3-yl)thiazol-2-yl)imidazo[5,1-d][1,2,3,5]tetrazin-4(3H)-one] | < 70 µM | < 75 µM | < 45 µM | < 60 µM
C#CCNC(=O)c1csc(-c2ncn3c(=O)n(C)nnc23)n1 [WW-005, 2-(3-Methyl-4-oxo-3,4-dihydroimidazo[5,1-d][1,2,3,5]tetrazin-8-yl)-N-(prop-2-ynyl)thiazole-4-carboxamide] | < 70 µM | < 75 µM | < 45 µM | < 60 µM
Cn1nnc2c(-c3nc(C(N)=O)cs3)ncn2c1=O [WW-007, 2-(3-Methyl-4-oxo-3,4-dihydroimidazo[5,1-d][1,2,3, 5]tetrazin-8-yl)thiazole-4-carboxamide] | < 70 µM | < 75 µM | < 45 µM | < 60 µM
C#CCn1nnc2c(-c3nc4ccccc4[nH]3)ncn2c1=O [WW-063, 8-(1H-Benzo[d]imidazol-2-yl)-3-(prop-2-ynyl)imidazo[5,1-d][1,2,3,5]tetrazin-4(3H)-one] | < 70 µM | < 75 µM | < 45 µM | < 60 µM
C[S+]([O-])Cn1nnc2c(-c3nc(-c4cccs4)cs3)ncn2c1=O (centres unmarked) [WW-036, 3-(methylsulfinylmethyl)-8-(4-(thiophen-2-yl)thiazol-2-yl)imidazo[5,1-d][1,2,3,5]tetrazin-4(3H)-one] | < 70 µM | < 75 µM | < 45 µM | < 60 µM
Cn1nnc2c(C(N)=O)ncn2c1=O [TMZ, temozolomide, reference compound] | 526 µM | 72.9 µM | 45.6 µM | 395 µM
Cn1nnc2c(-c3nc(C#N)cs3)ncn2c1=O [WW-006, 2-(3-Methyl-4-oxo-3,4-dihydroimidazo[5,1-d][1,2,3,5]tetrazin-8-yl)thiazole-4-carbonitrile] | – | < 75 µM | < 45 µM | < 60 µM
C#CCn1nnc2c(C(N)=S)ncn2c1=O [TT-001, 4-oxo-3-(prop-2-ynyl)-3,4-dihydroimidazo[5,1-d][1,2,3,5]tetrazine-8-carbothioamide] | 54.7 µM | 42.3 µM | 63.2 µM | 53.4 µM
COCn1nnc2c(-c3nc(-c4ccccc4)cs3)ncn2c1=O [WW-016, 3-(Methoxymethyl)-8-(4-phenylthiazol-2-yl)imidazo[5,1-d][1,2,3,5]tetrazin-4(3H)-one] | < 70 µM | < 75 µM | – | < 60 µM
C#CCn1nnc2c(-c3ncc(-c4ccccc4)o3)ncn2c1=O [WW-040] | < 70 µM | < 75 µM | – | < 60 µM
COCn1nnc2c(-c3nc(-c4nccs4)cs3)ncn2c1=O [WW-015, 8-(2,4′-Bithiazol-2′-yl)-3-(methoxymethyl)imidazo[5,1-d][1,2,3,5]tetrazin-4(3H)-one] | < 70 µM | < 75 µM | – | < 60 µM
Cn1nnc2c(-c3nc(C(=O)NC(C)(C)C)cs3)ncn2c1=O [WW-009, N-tert-Butyl-2-(3-methyl-4-oxo-3,4-dihydroimidazo[5,1-d][1,2,3,5]tetrazin-8-yl)thiazole-4-carboxamide] | – | < 75 µM | < 45 µM | < 60 µM
CSCn1nnc2c(-c3nc(-c4ccccc4)cs3)ncn2c1=O [WW-030, 3-(Methylthiomethyl)-8-(4-phenylthiazol-2-yl)imidazo[5,1-d][1,2,3,5]tetrazin-4(3H)-one] | < 70 µM | < 75 µM | – | < 60 µM
